Here are results for 61 compounds from patent US7538073B2, “Pyrazoylcarboxanilides as fungicides” (Bayer CropScience AG, priority 2001, dated 2009).

Tested on in the first data set: not listed separately
Briefly: logP by HPLC, reversed-phase column (C 18), EEC Directive 79/831 Annex V.A8. It is filed as physicochemical. As to conditions: reversed-phase HPLC column (C 18), acidic range pH 2.3, 0.1% aqueous phosphoric acid/acetonitrile gradient, 43° C. The protocol:
The logP values given in the preparation examples and tables above are determined in accordance with EEC Directive 79/831 Annex V.A8 by HPLC (High Performance Liquid Chromatography) using a reversed-phase column (C 18). Temperature: 43° C. The determination is carried out in the acidic range at pH 2.3 using the mobile phases 0.1% aqueous phosphoric acid and acetonitrile; linear gradient from 10% acetonitrile to 90% acetonitrile. The calibration is carried out using unbranched alkan-2-ones (having 3 to 16 carbon atoms), with known logP values (determination of the logp values by the retention times using linear interpolation between two successive alkanones).
A word on the chromatographic logP: it is lipophilicity estimated from chromatographic retention. Higher therefore signals higher lipophilicity. `CCC(CC)c1ccccc1NC(=O)c1c(C)nn(C)c1F` [Example 2, N-[2-(1-ethylpropyl)phenyl]-5-fluoro-1,3-dimethyl-1H-pyrazol-4-carboxamide] had a chromatographic logP of 3.01.
The same measure, in the same setting: the same measure for `Cc1nn(C)c(F)c1C(=O)Nc1ccccc1C=CC1CC1(F)F` (stereo not shown) [Example 4, N-{2-[2-(2,2-difluorocyclopropyl)ethenyl]-phenyl}-5-fluoro-1,3-dimethyl-1H-pyrazol-4-carboxamide]: 2.59.
The same measure, in the same setting: the same measure for `CCCC/C=C(\C)c1ccccc1NC(=O)c1c(C)nn(C)c1F` [Example 5, 5-fluoro-1,3-dimethyl-N-[2-(1-methyl-1-hexenyl)phenyl]-1H-pyrazol-4-carboxamide]: 4.36; for `C=C(c1ccccc1NC(=O)c1c(C)nn(C)c1F)C1CCCCC1` [Example I-9]: 4.36; for `C=C(c1ccccc1NC(=O)c1c(C)nn(C)c1F)C(C)C` [Example I-10]: 3.37.
Same read-out and setting: the same measure for `C=C(c1cc(Cl)ccc1NC(=O)c1c(C)nn(C)c1F)C(C)C` [Example I-16]: 4.11; for `CCCC(C)c1ccccc1NC(=O)c1c(C)nn(C)c1F` (stereo not shown) [Example I-17]: 3.01.
`Cc1nn(C)c(F)c1C(=O)Nc1ccccc1C(C)C(C)C` (stereo not shown) [Example I-18] displayed a chromatographic logP of 2.92.
Still for that read-out and setting: the same measure for `Cc1nn(C)c(F)c1C(=O)Nc1ccc(Cl)cc1C(C)C(C)C` (stereo not shown) [Example I-19]: 3.43.
In turn, `C=Cc1ccccc1NC(=O)c1c(C)nn(C)c1F` [Example I-20] came in with a chromatographic logP of 1.92.
With `Cc1nn(C)c(F)c1C(=O)Nc1ccccc1C(C)CC(C)C` (stereo not shown) [Example I-21], the chromatographic logP worked out at 3.26.
Same read-out and setting: for `CCCCCC(C)c1ccccc1NC(=O)c1c(C)nn(C)c1F` (stereo not shown) [Example I-22] the value was 3.83; for `C=C(C)c1ccccc1NC(=O)c1c(C)nn(C)c1F` [Example I-23], 2.57; for `C/C=C(\CC)c1ccccc1NC(=O)c1c(C)nn(C)c1F` [Example I-24], 3.45.
Same read-out and setting: the same measure for `Cc1nn(C)c(F)c1C(=O)Nc1ccc(Cl)cc1C(C)CC(C)C` (stereo not shown) [Example I-25]: 3.82.
`CCC(C)CC(C)c1ccccc1NC(=O)c1c(C)nn(C)c1F` (stereo not shown) [Example I-26] showed a chromatographic logP of 3.67.
For `Cc1nn(C)c(F)c1C(=O)Nc1ccccc1C(C)CC1CCCC1` (stereo not shown) [Example I-27], the chromatographic logP stood at 3.82.
`CCC(CC(C)C)c1ccccc1NC(=O)c1c(C)nn(C)c1F` (stereo not shown) [Example I-28] yielded a chromatographic logP of 3.73.
Same read-out and setting: for `CCC(C)C(CC)c1ccccc1NC(=O)c1c(C)nn(C)c1F` (stereo not shown) [Example I-29] the value was 3.74; for `CCCCCCCCC(C)c1ccccc1NC(=O)c1c(C)nn(C)c1F` (stereo not shown) [Example I-30], 5.29; for `CCCCC(CC)c1ccccc1NC(=O)c1c(C)nn(C)c1F` (stereo not shown) [Example I-31], 3.85.
For the compound `CCCC(CC)c1ccccc1NC(=O)c1c(C)nn(C)c1F` (stereo not shown) [Example I-32], the chromatographic logP came to 3.42.
The same measure, in the same setting: the same measure for `CCC(c1ccccc1NC(=O)c1c(C)nn(C)c1F)C1CCCCC1` (stereo not shown) [Example I-33]: 4.34; for `Cc1nn(C)c(F)c1C(=O)Nc1ccccc1C(C)CCCC(C)C` (stereo not shown) [Example I-34]: 4.22.
Regarding `CCCC(C)CC(C)c1ccccc1NC(=O)c1c(C)nn(C)c1F` (stereo not shown) [Example I-35], the chromatographic logP stood at 4.11.
`Cc1nn(C)c(F)c1C(=O)Nc1ccccc1C(C)CCC(C)C` (stereo not shown) [Example I-36]: the chromatographic logP came to 3.76.
In turn, `CC(C)=CC(C)CCC(C)c1ccccc1NC(=O)c1c(C)nn(C)c1F` (stereo not shown) [Example I-37] gave a chromatographic logP of 4.49.
In the case of `CCC(c1ccccc1NC(=O)c1c(C)nn(C)c1F)C(C)C` (stereo not shown) [Example I-38], the chromatographic logP came to 3.37.
For the compound `CCCCC(c1ccccc1NC(=O)c1c(C)nn(C)c1F)C(C)C` (stereo not shown) [Example I-39], the chromatographic logP is 4.24.
Compound `CCC(C)C(C)c1ccccc1NC(=O)c1c(C)nn(C)c1F` (stereo not shown) [Example I-40] yielded a chromatographic logP of 3.28.
On the same count and under the same terms, for `Cc1nn(C)c(F)c1C(=O)Nc1ccc(F)cc1C(C)CC(C)C` (stereo not shown) [Example I-41] the value was 3.32; for `Cc1nn(C)c(F)c1C(=O)Nc1ccccc1C(C)C1CCCCC1` (stereo not shown) [Example I-42], 3.82.
The same measure, in the same setting: the same measure for `CCCC(C)c1cc(F)ccc1NC(=O)c1c(C)nn(C)c1F` (stereo not shown) [Example I-43]: 3.05; for `Cc1nn(C)c(F)c1C(=O)Nc1c(F)cccc1C(C)CC(C)C` (stereo not shown) [Example I-44]: 3.16; for `Cc1nn(C)c(F)c1C(=O)Nc1ccccc1C(C)CC1CCCCC1` (stereo not shown) [Example I-45]: 4.2.
Compound `Cc1nn(C)c(F)c1C(=O)Nc1ccccc1C(C)(F)C(C)C` (stereo not shown) [Example I-46] yielded a chromatographic logP of 3.09.
Compound `Cc1nn(C)c(F)c1C(=O)Nc1ccccc1C(C)(F)CCCCCl` (stereo not shown) [Example I-47] registered a chromatographic logP of 4.01.
The same measure, in the same setting: for `CCC(C)C(C)(F)c1ccccc1NC(=O)c1c(C)nn(C)c1F` (stereo not shown) [Example I-48] the value was 3.44; for `Cc1nn(C)c(F)c1C(=O)Nc1ccccc1C(C)(F)CC(C)C` (stereo not shown) [Example I-49], 3.47.
Same read-out and setting: for `CCCC(C)c1cccc(F)c1NC(=O)c1c(C)nn(C)c1F` (stereo not shown) [Example I-50] the value was 2.86; for `Cc1nn(C)c(F)c1C(=O)Nc1ccccc1C#CCC1CCCCC1` [Example I-52], 5.08; for `Cc1nn(C)c(F)c1C(=O)Nc1ccccc1C#CC(C)C` [Example I-53], 3.59.
Turning to `Cc1nn(C)c(F)c1C(=O)Nc1c(C(C)CC(C)C)cccc1C(C)CC(C)C` (stereo not shown) [Example I-54], the chromatographic logP amounted to 4.9.
In the case of `Cc1nn(C)c(F)c1C(=O)Nc1ccccc1I` [Example V-1, 5-fluoro-N-(2-iodophenyl)-1,3-dimethyl-1H-pyrazol-4-carboxamide], the chromatographic logP stood at 2.44.
`CCC(O)(CC)c1ccccc1NC(=O)c1c(C)nn(C)c1F` [IV-1, N-[2-(1-ethyl-1-hydroxypropyl)phenyl]-5-fluoro-1,3-dimethyl-1H-pyrazol-4-carboxamide] displayed a chromatographic logP of 2.47.
On to `CCCC(C)(O)c1ccccc1NC(=O)c1c(C)nn(C)c1F` (stereo not shown) [IV-2], for which the chromatographic logP is 2.4.
Consider `CCCCCC(C)(O)c1ccccc1NC(=O)c1c(C)nn(C)c1F` (stereo not shown) [IV-3], for which the chromatographic logP was 3.13.
Still for that read-out and setting: the same measure for `Cc1nn(C)c(F)c1C(=O)Nc1ccccc1C(C)(O)C1CCCCC1` (stereo not shown) [IV-4]: 3.1; for `Cc1nn(C)c(F)c1C(=O)Nc1ccccc1C(C)(O)C(C)C` (stereo not shown) [IV-5]: 2.41; for `Cc1nn(C)c(F)c1C(=O)Nc1ccccc1C(C)(O)CC(C)C` (stereo not shown) [IV-6]: 2.68.
As to `Cc1nn(C)c(F)c1C(=O)Nc1ccc(Cl)cc1C(C)(O)C(C)C` (stereo not shown) [IV-12], the chromatographic logP is 2.99.
Turning to `CCC(O)(CC(C)C)c1ccccc1NC(=O)c1c(C)nn(C)c1F` (stereo not shown) [IV-13], the chromatographic logP was determined as 3.11.
On the same count and under the same terms, for `CC(=O)c1ccccc1NC(=O)c1c(C)nn(C)c1F` [VIII-1, N-(2-acetylphenyl)-5-fluoro-1,3-dimethyl-1H-pyrazol-4-carboxamide] the value was 2.15.

The next data set deals with Pyrenophora teres. Kind of data set: Pyrenophora teres test (barley)/protective. As to conditions: protective, application rate 250 g/ha, evaluation 7 days after inoculation. It counts as in vivo. The protocol: To produce a suitable preparation of active compound, 1 part by weight of active compound is mixed with the stated amount of solvent and emulsifier, and the concentrate is diluted with water to the desired concentration.
To test for protective activity, young plants are sprayed with the preparation of active compound at the stated application rate. After the spray coating has dried on, the plants are sprayed with a conidia suspension of Pyrenophora teres. The plants remain in an incubation cabin at 20° C. and 100% relative atmospheric humidity for 48 hours.
The plants are then placed in a greenhouse at a temperature of about 20° C. and a relative atmospheric humidity of about 80%.
Evaluation is carried out 7 days after the inoculation. 0% means an efficacy which corresponds to that of the control, whereas an efficacy of 100% means that no infection is observed.
In turn, `CCCC(C)c1ccccc1NC(=O)c1c(C)nn(C)c1F` (stereo not shown) [drawing 95] came in with an Efficacy in % of 100%.

The test system of another data set is Podosphaera leucotricha. Briefly: Podosphaera test (apple)/protective. It counts as in vivo. To be noted: protective, application rate 100 g/ha, evaluation 10 days after inoculation. The protocol: (§1) To produce a suitable preparation of active compound, 1 part by weight of active compound is mixed with the stated amounts of solvent and emulsifier, and the concentrate is diluted with water to the desired concentration.
To test for protective activity, young plants are sprayed with the preparation of active compound at the stated application rate. After the spray coating has dried on, the plants are inoculated with an aqueous spore suspension of the apple mildew pathogen Podosphaera leucotricha. The plants are then placed in a greenhouse at about 23° C. and a relative atmospheric humidity of about 70%.
Evaluation is carried out 10 days after the inoculation. 0% means an efficacy which corresponds to that of the control, whereas an efficacy of 100% means that no infection is observed.
For `C=C(c1ccccc1NC(=O)c1c(C)nn(C)c1F)C(C)C` [drawing 97], the Efficacy in % came out at 90%.
With `CCCC(C)c1ccccc1NC(=O)c1c(C)nn(C)c1F` (stereo not shown) [drawing 98], the Efficacy in % was 100%.
Same read-out and setting: for `Cc1nn(C)c(F)c1C(=O)Nc1ccccc1C(C)C(C)C` (stereo not shown) [drawing 99] the value was 100%; for `Cc1nn(C)c(F)c1C(=O)Nc1ccc(Cl)cc1C(C)C(C)C` (stereo not shown) [drawing 100], 100%.

A further data set deals with Altemaria solani. Briefly: Alternaria test (tomato)/protective. It is filed as in vivo. To be noted: protective, application rate 750 g/ha, evaluation 7 days after inoculation. The protocol:
as §1
To test for protective activity, young tomato plants are sprayed with the preparation of active compound at the stated application rate. 1 day after the treatment, the plants are inoculated with a spore suspension of Altemaria solani and then remain at 100% rel. humidity and 20° C. for 24 h. The plants then remain at 96% rel. atmospheric humidity and a temperature of 20° C.
Evaluation was carried out 7 days after the inoculation. 0% means an efficacy which corresponds to that of the control, whereas an efficacy of 100% means that no infection is observed.
In turn, `CCCC(C)c1ccccc1NC(=O)c1c(C)nn(C)c1F` (stereo not shown) [drawing 101] showed an Efficacy in % of 95%.
The same measure, in the same setting: the same measure for `Cc1nn(C)c(F)c1C(=O)Nc1ccccc1C(C)C(C)C` (stereo not shown) [drawing 102]: 95%.
`Cc1nn(C)c(F)c1C(=O)Nc1ccccc1C(C)CC(C)C` (stereo not shown) [drawing 103]: the Efficacy in % is 100%.
